How the values were obtained:
HepG2 liver cancer cells [1] = assay: Hepatocellular carcinoma killing effect, cell viability assay (Cell Counting Kit-8), 96 h coculture; format: cell-based, human
Procedure: HepG2 cells (5×10^4/[…]/well) were incubated for 24 hours in a 37° C. and 5% CO2 atmosphere, and compounds 7, 15, and 20 (10 μL of a solution brought to 1 μM by dissolution in MilliQ) were then respectively added per 90 μL of the medium and the final concentration was adjusted to 100 nM. At 96 hours after the start of coculture, washing was performed 3 times with the medium component and 10 μL of Cell Counting Kit-8 (Dojindo, Kumamoto, Japan) was added to the cell culture medium; incubation was carried out for 1.5 hours in a 37° C. and 5% CO2 atmosphere; and the viable cell percentage was quantitated by measurement of the absorbance at 450 nm. A 100 nM 5-fluorouracil solution (5-FU) was used as a control agent (FIG. 11).
With reference to the preceding experimental results (FIG. 11), an evaluation of the dose dependence and a determination of the IC50 value were performed for the antitumor effect of the inhibitor 7-bearing, phospholipid-coated fluorescent nanoparticles and the inhibitor 15-bearing, phospholipid-coated fluorescent nanoparticles, which had been confirmed to have a significant inhibitory activity on cancer cell growth versus the 5-FU comparative control agent. […]

[2] = system: MCF-7 breast cancer cells; assay: Breast cancer cell killing action, viability by MTA/MTT assay (Cell Counting Kit-8); format: cell-based, human; settings: 100 μM cisplatin, MCF-7, 96 hours, microscopy
Procedure: Quantitation of dead cells by the MTA assay: MCF7 cells (5×10^3/100 μL/well) were incubated for 24 hours in a 37° C. and 5% CO2 atmosphere, and QD-anchored inhibitor 7 (1 μM, 10±L/MilliQ), QD control (1 μM, 10 μL/MilliQ), compound 7 (1 μM, 10 μL/MilliQ), and cisplatin (1 mM, 10 μL/MilliQ) were then respectively added per 90 μL of the medium and the final concentration was adjusted to 100 nM (but 100 μM for the cisplatin). At 96 hours after the start of culture, washing was performed 3 times with the medium component and 10 μL of the cell culture medium was recovered. Cell Counting Kit-8 solution (Dojindo, Kumamoto, Japan) was added; incubation was carried out for 1.5 hours in a 37° C. and 5% CO2 atmosphere; and the viable cell percentage was quantitated by measurement of the absorbance at 450 nm.
Quantitation of dead cells by the MTT assay: MCF-7 cells (5×10^4/[…]/well) were incubated for 24 hours in a 37° C. and 5% CO2 atmosphere, and QD-anchored inhibitor 15 (1 μM, 10 μL/MilliQ) was then respectively added per […] of the medium and the final concentration was adjusted to 100 nM (but 100 μM for the cisplatin). […]

various glycosidases = settings: free small-molecule compounds; cited from earlier work
HepG2 liver cancer cells [3] = assay: Hepatocellular carcinoma killing action of sorafenib derivative 32, cell viability assay, 48 h coculture; format: cell-based; settings: Homo sapiens; HepG2, 48 hours, small molecule not carried on nanoparticles
Procedure: At 48 hours after the start of coculture, washing was performed 3 times with the medium component and 10 μL of Cell Counting Kit-8 (Dojindo, Kumamoto, Japan) was added to the cell culture medium; incubation was carried out for 1.5 hours in a 37° C. and 5% CO2 atmosphere; and the cancer cell viability was quantitated by measurement of the absorbance at 450 nm (FIG. 15).

[4] = system: cultured cancer cells that express the target kinase group; settings: cultured cancer cells expressing the target kinase group; cited from earlier work
HepG2 cells = settings: Lin, L. et al., Cancer Res. 2006; cited from earlier work

SMILES: O=c1[nH]cc(F)c(=O)[nH]1 [5-FU, 5-fluorouracil]
- antitumor activity (HepG2 liver cancer cells [1]; 100 nM, HepG2, coculture for 96 hours): a significant antitumor activity was not observed
- IC50 (HepG2 liver cancer cells [1]; Homo sapiens, HepG2, 96 hours of coculture, 5 to 100 nM): > 0.1 µM

SMILES: N.N.[Cl][Pt][Cl] [cisplatin]
- floating dead cells with altered shapes [2]: floating dead cells with altered shapes were observed

SMILES: CC(=O)CCCC(=O)Nc1ccc(O[C@@H]2OC(CO)[C@@H](O)C(O)C2NC(C)=O)c(C(F)F)c1 (stereo partly drawn) [compound 7]
- native IC50 for various glycosidases in vitro (various glycosidases): on the order of mM

SMILES: CC(=O)CCCC(=O)Nc1ccc(O[C@@H]2OC(CO)[C@H](O)C(O)C2O)c(C(F)F)c1 (stereo partly drawn) [compound 15]
- native IC50 for various glycosidases in vitro (various glycosidases): on the order of mM

SMILES: CC(=O)CCCC(=O)Nc1ccc(O[C@]2(C(=O)O)CC(O)[C@@H](NC(C)=O)C([C@H](O)[C@H](O)CO)O2)c(C(F)F)c1 (stereo partly drawn) [compound 20]
- native IC50 for various glycosidases in vitro (various glycosidases): on the order of mM

SMILES: CC(=O)CCCCNC(=O)c1cc(Oc2ccc(NC(=O)Nc3ccc(Cl)c(C(F)(F)F)c3)cc2)ccn1 [compound 32]
- IC50 (HepG2 liver cancer cells [3]): 2.1 µM

SMILES: CNC(=O)c1cc(Oc2ccc(NC(=O)Nc3ccc(Cl)c(C(F)(F)F)c3)cc2)ccn1 [sorafenib]
- IC50 [4]: 4.5 µM
- IC50 (HepG2 cells): 4.5 µM

— patent publication US11007276B2, “Intracellular substance transport system and use thereof” (NATIONAL UNIVERSITY CORPORATION HOKKAIDO UNIVERSITY, priority 2016, dated 2021)
